Measured values from ChEMBL document CHEMBL1201862, “PubChem BioAssay data set” (2004).
Calls of active or inactive are those of the source.

Columns and labels:
Ephrin type-A receptor 4 = Ephrin type-A receptor 4 (Mus musculus, UniProt Q03137); test: EphA4 ligand-binding antagonists – biochemical, colorimetric, mouse EphA4, primary screen (AID 689); type: functional
HeLa = test: viability loss in HeLa cells – cell-based, 24 h, cherry-picked samples, cytotoxicity control, dose response (AID 504726); type: functional; conditions: Homo sapiens;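 note: potency for cytotoxicity as loss of luminescence signal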
ORF 73 = ORF 73 (Human herpesvirus 8, UniProt O40947); test: KSHV LANA DNA-binding disruption – biochemical, fluorescence polarization, cherry-picked samples, dose response (AID 504725); parameters: species or system Human gammaherpesvirus 8;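 note: fluorescence polarization of a labeled DNA duplex reporting LANA DNA binding; potency is for inhibitors that block LANA binding to the DNA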
[1] = molecular target: UDP-galactopyranose mutase (Mycobacterium tuberculosis, UniProt P9WIQ1); test: Inhibitors of Mycobacterium tuberculosis UDP-galactopyranose mutase (UGM) enzyme Measured in Biochemical System Using Plate Reader - 2105-02_Inhibitor_Dose_CherryPick_Activity. [Related pubchem assays (depositor defined):AID504439]
[2] = molecular target: T1, Corticotropin-releasing factor receptor 2/Corticotropin-releasing factor-binding protein (Homo sapiens, UniProt P24387+Q13324); test: activators of CRF receptor 2 with binding protein – uHTS hits, confirmation (AID 602473); type: functional; conditions: read-out: EC50_Mean
T1 sequence (Q13324 whole entry): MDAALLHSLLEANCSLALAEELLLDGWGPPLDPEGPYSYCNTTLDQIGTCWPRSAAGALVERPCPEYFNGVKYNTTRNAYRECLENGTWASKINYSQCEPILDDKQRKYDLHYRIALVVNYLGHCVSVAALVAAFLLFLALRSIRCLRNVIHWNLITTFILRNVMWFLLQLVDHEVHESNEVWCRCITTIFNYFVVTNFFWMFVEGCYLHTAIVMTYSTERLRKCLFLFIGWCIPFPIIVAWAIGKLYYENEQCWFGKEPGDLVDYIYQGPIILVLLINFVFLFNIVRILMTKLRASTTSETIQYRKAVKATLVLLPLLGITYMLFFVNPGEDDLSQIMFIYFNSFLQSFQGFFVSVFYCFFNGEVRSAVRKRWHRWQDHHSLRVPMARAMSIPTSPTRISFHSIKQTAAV
T1 sequence (P24387 whole entry): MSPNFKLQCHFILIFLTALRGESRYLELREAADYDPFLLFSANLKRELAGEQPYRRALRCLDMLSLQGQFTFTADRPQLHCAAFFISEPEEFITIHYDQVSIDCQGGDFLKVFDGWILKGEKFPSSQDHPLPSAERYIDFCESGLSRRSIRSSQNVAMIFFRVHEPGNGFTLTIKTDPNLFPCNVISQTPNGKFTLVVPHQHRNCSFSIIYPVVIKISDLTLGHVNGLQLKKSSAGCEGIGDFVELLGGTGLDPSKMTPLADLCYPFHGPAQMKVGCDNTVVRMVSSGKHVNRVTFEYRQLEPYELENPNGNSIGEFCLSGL

[3] = molecular target: G-protein coupled receptor 35 (Homo sapiens, UniProt Q9HC97); test: SAR Analysis for the identification of Selective Antagonists of ERK1/2 Activity in GPR35-Overexpressing U2OS Cells. [Related pubchem assays: 2079, 2058 ]; type: functional, cell-based
[4] = molecular target: Tyrosine-protein phosphatase non-receptor type 12 (Homo sapiens, UniProt Q05209); test: SAR Selectivity Analysis of small molecule inhibitors of PEST using pCAP in a fluorescence assay. [Related pubchem assays (depositor defined):AID1779, AID1784, AID2135]; type: functional
[5] = molecular target: T2, Tyrosine-protein phosphatase non-receptor type 22 (Homo sapiens, UniProt Q9Y2R2); test: SAR LYP1 Fluorescent Assay using OMFP substrate for In Vitro dose response studies - Set 3. [Related pubchem assays (depositor defined):AID1779, AID1784, AID2140, AID2686]; type: functional
T2 sequence (Q9Y2R2 whole entry): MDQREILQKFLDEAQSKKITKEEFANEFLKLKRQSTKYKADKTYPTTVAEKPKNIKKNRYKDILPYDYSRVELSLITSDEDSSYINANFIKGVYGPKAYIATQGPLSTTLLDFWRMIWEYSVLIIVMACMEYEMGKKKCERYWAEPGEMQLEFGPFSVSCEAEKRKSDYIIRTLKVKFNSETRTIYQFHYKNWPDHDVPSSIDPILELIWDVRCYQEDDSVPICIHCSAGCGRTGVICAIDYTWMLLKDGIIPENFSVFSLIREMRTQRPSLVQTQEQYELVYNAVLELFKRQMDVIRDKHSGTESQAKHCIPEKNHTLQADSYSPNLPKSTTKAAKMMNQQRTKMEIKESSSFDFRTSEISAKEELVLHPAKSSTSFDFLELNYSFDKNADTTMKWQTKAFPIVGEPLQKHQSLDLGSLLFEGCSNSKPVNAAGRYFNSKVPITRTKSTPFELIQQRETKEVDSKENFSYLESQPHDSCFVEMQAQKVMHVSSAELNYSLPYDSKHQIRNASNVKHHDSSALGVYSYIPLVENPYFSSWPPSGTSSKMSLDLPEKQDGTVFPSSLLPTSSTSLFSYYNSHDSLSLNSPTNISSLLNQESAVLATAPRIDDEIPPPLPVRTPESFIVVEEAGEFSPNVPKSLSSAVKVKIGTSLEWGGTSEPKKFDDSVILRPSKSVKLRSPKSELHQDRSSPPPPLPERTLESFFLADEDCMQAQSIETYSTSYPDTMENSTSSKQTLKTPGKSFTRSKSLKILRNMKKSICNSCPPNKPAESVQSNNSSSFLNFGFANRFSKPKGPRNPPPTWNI

[6] = molecular target: T3, Tyrosine-protein phosphatase non-receptor type 7 (Homo sapiens, UniProt P35236); test: inhibition of hematopoietic tyrosine phosphatase HePTP – biochemical, set 2, SAR follow-up (AID 449736); type: functional
T3 sequence (P35236 whole entry): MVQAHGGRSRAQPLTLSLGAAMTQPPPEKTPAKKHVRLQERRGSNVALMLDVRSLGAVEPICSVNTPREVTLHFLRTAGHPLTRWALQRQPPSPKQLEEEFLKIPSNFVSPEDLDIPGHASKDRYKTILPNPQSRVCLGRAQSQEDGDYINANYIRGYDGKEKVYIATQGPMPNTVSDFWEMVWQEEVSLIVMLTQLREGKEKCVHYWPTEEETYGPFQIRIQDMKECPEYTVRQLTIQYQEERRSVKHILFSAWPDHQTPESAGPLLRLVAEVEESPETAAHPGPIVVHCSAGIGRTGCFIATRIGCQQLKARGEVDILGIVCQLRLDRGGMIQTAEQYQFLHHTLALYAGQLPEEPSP

[7] = molecular target: T2, Tyrosine-protein phosphatase non-receptor type 22; test: inhibition of lymphoid tyrosine phosphatase LYP – biochemical, pCAP fluorogenic substrate, fluorescence, set 3, SAR follow-up (AID 449727); type: functional
[8] = molecular target: G-protein coupled receptor 55 (Homo sapiens, UniProt Q9Y2T6); test: blockers of GPR55 signalling, imaged – imaging, image-based, counter-screen for GPR35 antagonist project, SAR follow-up (AID 2397); type: functional
[9] = molecular target: T4, Mannose-6-phosphate isomerase (Homo sapiens, UniProt P34949); test: phosphomannose isomerase inhibition – biochemical, fluorescence intensity, confirmation (AID 1535)
T4 sequence (P34949 whole entry): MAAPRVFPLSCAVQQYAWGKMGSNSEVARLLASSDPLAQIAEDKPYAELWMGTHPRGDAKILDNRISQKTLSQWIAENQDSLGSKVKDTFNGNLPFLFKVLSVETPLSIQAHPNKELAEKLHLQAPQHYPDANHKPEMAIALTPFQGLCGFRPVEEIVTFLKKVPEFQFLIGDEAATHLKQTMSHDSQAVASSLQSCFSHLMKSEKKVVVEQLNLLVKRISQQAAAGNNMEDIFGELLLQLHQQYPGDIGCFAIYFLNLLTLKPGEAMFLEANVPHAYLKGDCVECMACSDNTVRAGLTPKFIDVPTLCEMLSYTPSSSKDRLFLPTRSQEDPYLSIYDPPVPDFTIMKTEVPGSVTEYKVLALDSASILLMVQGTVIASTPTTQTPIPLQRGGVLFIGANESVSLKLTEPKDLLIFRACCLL

Phosphomannomutase 2 = Phosphomannomutase 2 (Homo sapiens, UniProt O15305); test: Counter screen SAR assay for PMM2 inhibitors via a fluorescence intensity assay. [Related pubchem assays (depositor defined):AID1545, AID1574]
Cytochrome P450 2D6 = Cytochrome P450 2D6 (Homo sapiens, UniProt P10635);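 note: CYP2D6 member of a cytochrome P450 panel assay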
Chain of Cytochrome P450 2D6 (P10635 whole entry): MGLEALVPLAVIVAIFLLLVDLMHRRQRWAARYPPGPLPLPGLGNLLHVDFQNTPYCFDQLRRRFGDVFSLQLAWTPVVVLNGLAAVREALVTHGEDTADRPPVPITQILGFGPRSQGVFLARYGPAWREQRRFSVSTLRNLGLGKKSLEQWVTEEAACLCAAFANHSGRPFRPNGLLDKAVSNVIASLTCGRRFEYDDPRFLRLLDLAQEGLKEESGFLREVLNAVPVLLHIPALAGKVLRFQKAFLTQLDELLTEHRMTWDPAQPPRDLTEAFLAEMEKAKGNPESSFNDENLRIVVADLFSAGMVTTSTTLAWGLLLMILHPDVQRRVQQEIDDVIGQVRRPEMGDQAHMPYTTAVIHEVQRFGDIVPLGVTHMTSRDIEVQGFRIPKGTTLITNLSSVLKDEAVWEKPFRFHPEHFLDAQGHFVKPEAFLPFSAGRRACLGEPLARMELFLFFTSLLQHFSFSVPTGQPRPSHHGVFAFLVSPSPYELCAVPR

Chain of G-protein coupled receptor 55 (Q9Y2T6 whole entry): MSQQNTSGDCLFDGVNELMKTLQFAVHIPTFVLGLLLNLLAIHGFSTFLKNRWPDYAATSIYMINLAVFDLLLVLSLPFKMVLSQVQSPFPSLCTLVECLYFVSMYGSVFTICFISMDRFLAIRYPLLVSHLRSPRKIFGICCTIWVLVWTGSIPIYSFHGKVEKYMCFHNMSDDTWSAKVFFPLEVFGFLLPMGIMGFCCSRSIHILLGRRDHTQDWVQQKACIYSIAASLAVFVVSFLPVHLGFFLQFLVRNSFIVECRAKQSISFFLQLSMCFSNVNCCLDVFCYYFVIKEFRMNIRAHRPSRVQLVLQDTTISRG
Chain of G-protein coupled receptor 35 (Q9HC97 whole entry): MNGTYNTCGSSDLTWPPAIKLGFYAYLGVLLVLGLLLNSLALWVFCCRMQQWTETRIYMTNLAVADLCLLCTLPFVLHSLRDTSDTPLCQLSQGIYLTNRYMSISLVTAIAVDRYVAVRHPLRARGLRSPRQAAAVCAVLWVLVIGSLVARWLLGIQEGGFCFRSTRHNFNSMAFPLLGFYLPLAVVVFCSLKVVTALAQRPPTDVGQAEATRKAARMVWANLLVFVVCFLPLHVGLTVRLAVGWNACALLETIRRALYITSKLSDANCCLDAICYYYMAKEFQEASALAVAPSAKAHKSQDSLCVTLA
Chain of ORF 73 (O40947 whole entry): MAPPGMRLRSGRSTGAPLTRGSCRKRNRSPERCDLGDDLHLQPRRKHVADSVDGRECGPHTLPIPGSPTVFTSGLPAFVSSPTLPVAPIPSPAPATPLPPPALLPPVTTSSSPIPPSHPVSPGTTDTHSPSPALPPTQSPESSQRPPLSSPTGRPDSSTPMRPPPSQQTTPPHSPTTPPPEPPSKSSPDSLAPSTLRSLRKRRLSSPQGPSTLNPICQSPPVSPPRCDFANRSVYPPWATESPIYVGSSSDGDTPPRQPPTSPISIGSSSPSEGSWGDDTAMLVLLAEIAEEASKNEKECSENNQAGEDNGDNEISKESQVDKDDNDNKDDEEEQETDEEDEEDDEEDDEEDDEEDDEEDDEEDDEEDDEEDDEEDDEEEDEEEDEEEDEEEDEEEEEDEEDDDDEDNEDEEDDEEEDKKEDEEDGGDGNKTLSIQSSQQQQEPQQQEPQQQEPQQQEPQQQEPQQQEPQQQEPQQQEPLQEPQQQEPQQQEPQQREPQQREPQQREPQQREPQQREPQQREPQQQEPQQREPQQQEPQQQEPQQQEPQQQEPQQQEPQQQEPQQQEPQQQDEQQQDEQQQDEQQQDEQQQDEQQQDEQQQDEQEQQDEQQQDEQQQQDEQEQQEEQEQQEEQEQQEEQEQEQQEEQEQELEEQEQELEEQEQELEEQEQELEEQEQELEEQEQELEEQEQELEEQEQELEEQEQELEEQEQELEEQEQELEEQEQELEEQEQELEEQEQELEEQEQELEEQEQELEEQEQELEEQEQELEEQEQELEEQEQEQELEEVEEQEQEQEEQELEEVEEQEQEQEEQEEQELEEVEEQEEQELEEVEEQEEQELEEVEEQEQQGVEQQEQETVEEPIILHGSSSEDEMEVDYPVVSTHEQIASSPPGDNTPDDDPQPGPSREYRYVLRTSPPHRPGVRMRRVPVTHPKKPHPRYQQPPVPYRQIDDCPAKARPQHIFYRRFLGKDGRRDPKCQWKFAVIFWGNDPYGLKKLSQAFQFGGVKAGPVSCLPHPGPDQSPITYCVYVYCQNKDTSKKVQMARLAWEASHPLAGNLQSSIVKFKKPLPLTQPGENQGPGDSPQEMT
Chain of Tyrosine-protein phosphatase non-receptor type 12 (Q05209 whole entry): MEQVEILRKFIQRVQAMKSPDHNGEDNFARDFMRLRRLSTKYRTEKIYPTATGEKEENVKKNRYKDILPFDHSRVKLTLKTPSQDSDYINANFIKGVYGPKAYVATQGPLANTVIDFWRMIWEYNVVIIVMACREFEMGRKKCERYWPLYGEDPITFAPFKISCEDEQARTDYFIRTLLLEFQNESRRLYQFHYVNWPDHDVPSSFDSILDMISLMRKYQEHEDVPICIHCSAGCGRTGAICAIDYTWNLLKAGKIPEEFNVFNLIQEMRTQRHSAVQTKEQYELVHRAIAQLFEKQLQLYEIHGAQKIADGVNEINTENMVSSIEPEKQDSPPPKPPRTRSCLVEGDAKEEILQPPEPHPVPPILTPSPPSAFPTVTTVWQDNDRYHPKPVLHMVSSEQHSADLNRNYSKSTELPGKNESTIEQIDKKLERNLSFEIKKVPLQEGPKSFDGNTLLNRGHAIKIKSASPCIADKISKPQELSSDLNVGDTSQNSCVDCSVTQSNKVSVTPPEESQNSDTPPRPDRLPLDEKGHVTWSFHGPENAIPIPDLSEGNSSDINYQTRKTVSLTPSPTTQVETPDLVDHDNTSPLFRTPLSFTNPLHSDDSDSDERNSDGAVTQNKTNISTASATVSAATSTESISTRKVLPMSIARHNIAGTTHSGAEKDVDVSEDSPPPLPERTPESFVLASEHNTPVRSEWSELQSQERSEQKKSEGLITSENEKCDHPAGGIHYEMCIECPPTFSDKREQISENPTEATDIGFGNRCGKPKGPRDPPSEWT
Chain of Phosphomannomutase 2 (O15305 whole entry): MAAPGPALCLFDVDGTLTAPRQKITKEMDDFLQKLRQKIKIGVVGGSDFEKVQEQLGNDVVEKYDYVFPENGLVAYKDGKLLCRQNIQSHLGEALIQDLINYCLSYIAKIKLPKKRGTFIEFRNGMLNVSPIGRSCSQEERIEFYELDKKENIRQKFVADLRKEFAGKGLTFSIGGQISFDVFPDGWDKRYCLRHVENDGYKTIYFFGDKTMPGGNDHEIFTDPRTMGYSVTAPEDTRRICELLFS
Chain of Ephrin type-A receptor 4 (Q03137 whole entry): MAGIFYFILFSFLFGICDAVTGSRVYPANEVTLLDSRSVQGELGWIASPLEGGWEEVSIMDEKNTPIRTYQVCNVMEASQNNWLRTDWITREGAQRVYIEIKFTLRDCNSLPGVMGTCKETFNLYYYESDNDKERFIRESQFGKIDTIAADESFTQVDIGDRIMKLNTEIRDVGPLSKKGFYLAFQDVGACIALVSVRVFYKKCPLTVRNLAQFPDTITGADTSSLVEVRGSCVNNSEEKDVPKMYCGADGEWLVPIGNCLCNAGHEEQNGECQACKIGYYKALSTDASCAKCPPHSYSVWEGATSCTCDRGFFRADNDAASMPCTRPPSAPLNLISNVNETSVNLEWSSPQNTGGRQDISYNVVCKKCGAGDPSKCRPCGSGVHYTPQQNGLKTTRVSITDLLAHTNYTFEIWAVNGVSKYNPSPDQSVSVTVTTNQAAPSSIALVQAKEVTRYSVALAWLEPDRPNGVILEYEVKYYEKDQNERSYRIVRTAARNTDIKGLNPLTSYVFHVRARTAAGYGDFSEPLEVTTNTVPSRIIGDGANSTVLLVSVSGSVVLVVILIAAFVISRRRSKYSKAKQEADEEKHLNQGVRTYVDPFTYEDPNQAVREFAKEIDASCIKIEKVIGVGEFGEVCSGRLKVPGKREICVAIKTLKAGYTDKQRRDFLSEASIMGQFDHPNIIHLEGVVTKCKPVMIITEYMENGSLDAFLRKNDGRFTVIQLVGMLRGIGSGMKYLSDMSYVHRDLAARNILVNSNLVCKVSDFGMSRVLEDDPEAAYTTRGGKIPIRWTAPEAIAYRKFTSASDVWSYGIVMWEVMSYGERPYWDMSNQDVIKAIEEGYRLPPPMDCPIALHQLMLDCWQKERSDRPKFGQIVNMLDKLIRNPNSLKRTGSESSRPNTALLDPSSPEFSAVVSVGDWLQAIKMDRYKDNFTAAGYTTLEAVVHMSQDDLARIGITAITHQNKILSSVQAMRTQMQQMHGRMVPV
Chain of UDP-galactopyranose mutase (P9WIQ1 whole entry): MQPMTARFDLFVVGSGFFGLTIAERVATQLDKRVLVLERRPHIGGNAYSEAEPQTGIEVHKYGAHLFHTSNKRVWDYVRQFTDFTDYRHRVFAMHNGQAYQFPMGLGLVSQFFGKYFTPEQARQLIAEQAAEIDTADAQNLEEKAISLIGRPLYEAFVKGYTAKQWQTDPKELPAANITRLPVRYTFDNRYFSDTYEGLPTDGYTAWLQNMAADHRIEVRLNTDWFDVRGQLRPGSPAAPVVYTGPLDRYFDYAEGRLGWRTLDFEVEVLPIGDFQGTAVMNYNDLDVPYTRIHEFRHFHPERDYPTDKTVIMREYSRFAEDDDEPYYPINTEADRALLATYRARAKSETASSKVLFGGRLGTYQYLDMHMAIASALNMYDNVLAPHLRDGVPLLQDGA

Question: `CCCCCn1nc(-c2ccccc2)c2nc3ccccc3nc21` was tested. Which IC50 (Ephrin type-A receptor 4) did it give?
Answer: Its IC50 is 6.11 µM (active).

Question: What about the AC50 (HeLa) of the same molecule?
Answer: Its AC50 is > 350 µM (inactive).

Question: What about the AC50 (ORF 73) of the same molecule?
Answer: Its AC50 is 56.5 µM (active).

Question: What about the AC50 [1] of the same molecule?
Answer: The AC50 was 31.7 µM (active).

Question: What about the EC50 [2] of the same molecule?
Answer: Its EC50 is 4.97 µM (active).

Question: Which IC50 [3] does the source give for `O=C(CCCN1C(=O)/C(=C/c2ccc3c(c2)OCO3)SC1=S)Nc1ccc(C(=O)O)c(O)c1` here?
Answer: The IC50 was 2.09 µM (active).

Question: And the IC50 [4]?
Answer: The IC50 was 39.4 µM (active).

Question: What about the IC50 [5] of the same molecule?
Answer: The IC50 was > 100 µM (inactive).

Question: And the IC50 [6]?
Answer: The IC50 was 8.75 µM (active).

Question: What about the IC50 [7] of the same molecule?
Answer: The IC50 was 73.1 µM (active).

Question: What about the IC50 [8] of the same molecule?
Answer: Its IC50 is > 32 µM (inactive).

Question: How did the IC50 [9] turn out when `COc1cc(N=c2ssnc2Cl)cc(OC)c1OC` was run?
Answer: Its IC50 is 2.91 µM (active).

Question: What about the IC50 (Phosphomannomutase 2) of the same molecule?
Answer: Its IC50 is > 100 µM (inactive).

Question: `CCCS(=O)(=O)N1CCCC(C(=O)NCCCOCC)C1` (centres undefined) was tested. Which AC50 (Cytochrome P450 2D6) did it give?
Answer: Its AC50 is “inconclusive”.
